What was measured:
[1] = compound: CCN(CCO)CCCOc1ccc2c(Nc3cc(CC(=O)Nc4cccc(F)c4)[nH]n3)ncnc2c1 [AZD2811]; conditions: max 1 µM
Method in brief: (§1)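 Following 24 hours at 37°C and 5% CO2, cancer cell lines in 1536-well plates with 7.5 μl DMEM/F12 or RPMI and 10% FBS were dosed for 72 hours, final DMSO typically being 0.2%. CellTiter-Glo 2.0 luminescence, scaled between blank-well and DMSO-well means, gave the viability readout. Dose responses were fitted to a two-parameter logistic curve with a non-linear mixed effects model, and the single-agent IC50 was derived from this fit.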

[2] = compound: Cc1c2c(nn1C)CSCc1cc(n(C)n1)CSc1cc(c3ccccc3c1)OCCCc1c(C(=O)O)n(C)c3c-2c(Cl)ccc13 [AZD5991]; conditions: max 1 µM
Method in brief: as §1

[3] = compound: COc1cc2ncnc(Nc3ccc(F)c(Cl)c3)c2cc1OCCCN1CCOCC1 [Gefitinib]; conditions: max 10 µM
Method in brief: as §1

[4] = compound: COc1nnc2ccc(N3CCC(c4ccc(OCCN5CCN(C)C(=O)[C@H]5C)cc4)CC3)nn12 [AZD5153]; conditions: max 1 µM
Method in brief: as §1

[5] = compound: CCc1c2c(nc3ccc(O)cc13)-c1cc3c(c(=O)n1C2)COC(=O)[C@]3(O)CC [SN-38]; conditions: max 0.3 µM
Method in brief: as §1

[6] = compound: CS(=O)(=O)CCNCc1ccc(-c2ccc3ncnc(Nc4ccc(OCc5cccc(F)c5)c(Cl)c4)c3c2)o1 [Lapatinib]; conditions: max 10 µM
Method in brief: as §1

[7] = compound: COc1cccc(OCCCN)c1-c1cc(Nc2cnc(C#N)cn2)n[nH]1 [Prexasertib]; conditions: max 1 µM
Method in brief: as §1

[8] = compound: COc1cccc2c1C(=O)c1c(O)c3c(c(O)c1C2=O)C[C@@](O)(C(=O)CO)C[C@@H]3O[C@H]1C[C@H](N)[C@H](O)[C@H](C)O1 [Doxorubicin]; conditions: max 1 µM
Method in brief: as §1

[9] = compound: Cc1cc2ncnn2cc1Nc1ncc2c(n1)n(C1CCOCC1)c(=O)n2C [AZD7648]; conditions: max 10 µM
Method in brief: as §1

[10] = compound: CC1(C)CCC(CN2CCN(c3ccc(C(=O)NS(=O)(=O)c4ccc(NCC5CCOCC5)c([N+](=O)[O-])c4)c(Oc4cnc5[nH]ccc5c4)c3)CC2)=C(c2ccc(Cl)cc2)C1 [Venetoclax]; conditions: max 1 µM
Method in brief: as §1

[11] = compound: CC1=C(C(=CC=C1)Cl)NC(=O)C2=CN=C(S2)NC3=CC(=NC(=N3)C)N4CCN(CC4)CCO [Dasatinib]; conditions: max 2 µM
Method in brief: as §1

[12] = compound: C[C@@H](Oc1cc(-c2cnn(C3CCNCC3)c2)cnc1N)c1c(Cl)ccc(F)c1Cl [Crizotinib]; conditions: max 10 µM
Method in brief: as §1

[13] = compound: C1CN(CCC1(C(=O)N[C@@H](CCO)C2=CC=C(C=C2)Cl)N)C3=NC=NC4=C3C=CN4 [Capivasertib]; conditions: max 10 µM
Method in brief: as §1

[14] = compound: C[C@@H]1COCCN1C2=NC(=NC(=C2)C3(CC3)[S@](=N)(=O)C)C4=C5C=CNC5=NC=C4 [AZD6738]; conditions: max 10 µM
Method in brief: as §1

[15] = compound: Cc1nc(-c2cn3c(n2)-c2ccc(-c4cnn(C(C)(C)C(N)=O)c4)cc2OCC3)n(C(C)C)n1 [Taselisib]; conditions: max 10 µM
Method in brief: as §1

[16] = compound: CN(CC[C@H](CSC1=CC=CC=C1)NC2=C(C=C(C=C2)S(=O)(=O)NC(=O)C3=CC=C(C=C3)N4CCC(CC4)[C@H](C5=CC=CC=C5C6=CC=C(C=C6)Cl)O)S(=O)(=O)C(F)(F)F)CCO [AZD4320]; conditions: max 1 µM
Method in brief: as §1

[17] = compound: CN(C)CCCOc1ccc(-c2ccc3ncc4c(c3c2)n(C2CCOCC2)c(=O)n4C)cn1 [AZD0156]; conditions: max 3 µM
Method in brief: as §1

[18] = compound: C[C@@H](c1ccc2nccn2c1)n1nnc2ncc(-c3cnn(C)c3)nc21 [Savolitinib]; conditions: max 1 µM
Method in brief: as §1

[19] = compound: Cn1cnc2c(F)c(Nc3ccc(Br)cc3Cl)c(C(=O)NOCCO)cc21 [Selumetinib]; conditions: max 10 µM
Method in brief: as §1

[20] = compound: COc1cc(Nc2ncc3c(n2)-c2ccc(Cl)cc2C(c2c(F)cccc2OC)=NC3)ccc1C(=O)O [Alisertib]; conditions: max 10 µM
Method in brief: as §1

[21] = compound: CC1=CN2[C@@H](C1)C=NC3=CC(=C(C=C3C2=O)OC)OCCCCCOC4=C(C=C5C(=C4)N=C[C@@H]6CC(=CN6C5=O)C)OC [SG3199]; conditions: max 0.001 µM
Method in brief: as §1

[22] = compound: CC(C)n1c(=O)n(C)c2cnc3cc(F)c(-c4ccc(OCCCN5CCCCC5)nc4)cc3c21 [AZD1390]; conditions: max 0.3 µM
Method in brief: as §1

[23] = compound: CC(=O)Nc1cccc(-n2c(=O)n(C3CC3)c(=O)c3c(Nc4ccc(I)cc4F)n(C)c(=O)c(C)c32)c1 [Trametinib]; conditions: max 1 µM
Method in brief: as §1

[24] = compound: CC(=O)c1c(C)c2cnc(Nc3ccc(N4CCNCC4)cn3)nc2n(C2CCCC2)c1=O [Palbociclib]; conditions: max 10 µM
Method in brief: as §1

[25] = compound: C[C@@H](Nc1cc(F)cc(F)c1)c1cc(C(=O)N(C)C)cc2c(=O)cc(N3CCOCC3)oc12 [AZD8186]; conditions: max 3 µM
Method in brief: as §1

[26] = compound: C=CCn1c(=O)c2cnc(Nc3ccc(N4CCN(C)CC4)cc3)nc2n1-c1cccc(C(C)(C)O)n1 [AZD1775]; conditions: max 3 µM
Method in brief: as §1

[27] = compound: O=C(c1cc(Cc2n[nH]c(=O)c3ccccc23)ccc1F)N1CCN(C(=O)C2CC2)CC1 [Olaparib]; conditions: max 10 µM
Method in brief: as §1

[28] = compound: NC1(c2ccc(-c3nc4ccn5c(=O)[nH]nc5c4cc3-c3ccccc3)cc2)CCC1 [MK-2206]; conditions: max 10 µM
Method in brief: as §1

Cell Line	IC50, cell viability 72 h [1]	IC50, cell viability 72 h [2]	IC50, cell viability 72 h [3]	IC50, cell viability 72 h [4]	IC50, cell viability 72 h [5]	IC50, cell viability 72 h [6]	IC50, cell viability 72 h [7]	IC50, cell viability 72 h [8]	IC50, cell viability 72 h [9]	IC50, cell viability 72 h [10]	IC50, cell viability 72 h [11]	IC50, cell viability 72 h [12]	IC50, cell viability 72 h [13]	IC50, cell viability 72 h [14]	IC50, cell viability 72 h [15]	IC50, cell viability 72 h [16]	IC50, cell viability 72 h [17]	IC50, cell viability 72 h [18]	IC50, cell viability 72 h [19]	IC50, cell viability 72 h [20]	IC50, cell viability 72 h [21]	IC50, cell viability 72 h [22]	IC50, cell viability 72 h [23]	IC50, cell viability 72 h [24]	IC50, cell viability 72 h [25]	IC50, cell viability 72 h [26]	IC50, cell viability 72 h [27]	IC50, cell viability 72 h [28]
RPMI-8866 (Chronic Myelogenous Leukemia)	449 nM	> 1000 nM	> 10000 nM	47.6 nM	4.48 nM	> 10000 nM	10 nM	125 nM	> 10000 nM	> 1000 nM	1130 nM	5730 nM	> 10000 nM	926 nM	2450 nM	362 nM	> 3000 nM	> 1000 nM	> 10000 nM	153 nM	> 1 nM	> 300 nM	> 1000 nM	2710 nM	> 3000 nM	349 nM	> 10000 nM	–
RT4 (Bladder Carcinoma)	> 1000 nM	> 1000 nM	> 10000 nM	840 nM	43.4 nM	> 10000 nM	> 1000 nM	642 nM	> 10000 nM	> 1000 nM	> 2000 nM	> 10000 nM	> 10000 nM	> 10000 nM	> 10000 nM	> 1000 nM	> 3000 nM	> 1000 nM	> 10000 nM	2400 nM	> 1 nM	> 300 nM	328 nM	> 10000 nM	> 3000 nM	2260 nM	> 10000 nM	–
SJRH30 (Rhabdomyosarcoma)	> 1000 nM	980 nM	> 10000 nM	> 1000 nM	> 300 nM	> 10000 nM	15.9 nM	967 nM	> 10000 nM	> 1000 nM	> 2000 nM	5220 nM	4700 nM	3800 nM	1470 nM	> 1000 nM	> 3000 nM	> 1000 nM	> 10000 nM	9410 nM	> 1 nM	> 300 nM	> 1000 nM	> 10000 nM	> 3000 nM	317 nM	> 10000 nM	> 10000 nM
SNU-175 (Colorectal Carcinoma)	65.6 nM	> 1000 nM	9290 nM	236 nM	208 nM	> 10000 nM	761 nM	502 nM	> 10000 nM	> 1000 nM	> 2000 nM	4580 nM	> 10000 nM	> 10000 nM	> 10000 nM	> 1000 nM	> 3000 nM	> 1000 nM	> 10000 nM	377 nM	> 1 nM	> 300 nM	547 nM	8340 nM	> 3000 nM	365 nM	> 10000 nM	–

Reference: the supplement of paper PMC11061612
